Patent publication US9221835B2, “Spirocyclic derivatives as antiparasitic agents” (Zoetis Services LLC, priority 2012, dated 2015)
Counter-ions that a name gives are not always drawn.

Assays:
Type in all cases: in vivo
[1] = tested on: Mosquito (Aedes aeqypti) larvae; assay: Mosquito (Aedes aeqypti) Larval Assay; details: first instar larvae, 25° C., 24 hours, lowest dose to inhibit motility ≧50% of untreated controls, half-log intervals, read-out: Minimum Effective Concentration (MEC)
Method: Mosquito (Aedes aeqypti) Larval Assay
Compounds were dissolved in DMSO and aliquots were spotted to empty wells. First instar mosquito larvae and maintenance media were added to the wells to obtain between 8 and 15 larvae per well in the appropriate final assay volume. Larvae were incubated in the treated media at 25° C. for 24 hours. Mosquito larvae motility was measured at 24 hours. Each compound was tested at half-log intervals, and endpoint results were recorded as Minimum Effective Concentration (MEC) in μM. MEC is an objective assessment of organism motility, and is the lowest dose to inhibit motility ≧50% of untreated controls.

[2] = tested on: Flea (Ctenocephalides felis); assay: Flea (Ctenocephalides felis) Membrane Feed Assay-Adult; details: adult fleas fed on treated citrated bovine blood for 24 hours, lowest dose to cause mortality ≧50%, half-log intervals, read-out: Minimum Effective Concentration (MEC)
Method: Flea (Ctenocephalides felis) Membrane Feed Assay-Adult
Compounds were dissolved in DMSO and aliquots were added to citrated bovine blood in membrane covered wells warmed to 37° C. Adult fleas were newly emerged (3-7 days) and unfed. Feeding wells containing approximately 10 adult fleas were placed onto the treated blood wells, and the fleas were allowed to feed on the treated blood for 24 hours. […] Each compound was tested at half-log intervals, and endpoint data was recorded as Minimum Effective Concentration in μM. MEC is a subjective visual assessment of organism viability, and is the lowest dose to cause mortality ≧50%.

[3] = tested on: Soft Tick (Ornithidorus turicata); assay: Soft Tick (Ornithidorus turicata) Blood Feed Assay; details: nymph stage ticks fed on treated citrated bovine blood; paralysis and/or death observed at approximately 24, 48 and 72 hours
Method: Soft Tick (Ornithidorus turicata) Blood Feed Assay
Compounds of the present invention were dissolved in dimethylsulfoxide (DMSO) and aliquots added to citrated bovine blood in a membrane covered Petri dish. The Petri dish is placed on a warming tray. Approximately 5 nymph stage ticks are placed onto the membrane, covered, and left to feed. Fed ticks are removed and placed into a Petri dish with sand. […] Endpoint data was recorded as a 100% lethal dose (LD^100) in μg/mL.

Compound	minimal effective concentration [1] [µM]	minimal effective concentration [2] [µM]	100% lethal dose (LD100) [3] [µg/mL]
CS(=O)(=O)CC(=O)N1CC2(C1)OCc1cc(C3=NOC(c4cc(Cl)c(Cl)c(Cl)c4)(C(F)(F)F)O3)ccc12 (stereo not shown) [Example 32, 2-(methylsulfonyl)-1-(5′-(5-(3,4,5-trichlorophenyl)-5-(trifluoromethyl)-1,4,2-dioxazol-3-yl)-3′H-spiro[azetidine-3,1′-isobenzofuran]-1-yl)ethanone]	> 3	≥ 3	
CS(=O)(=O)CC(=O)N1CC2(C1)OCc1cc(C3=NOC(c4cc(Cl)cc(Cl)c4)(C(F)(F)F)O3)ccc12 (stereo not shown) [Example 29, 1-(5-(5-(3,5-dichlorophenyl)-5-(trifluoromethyl)-1,4,2-dioxazol-3-yl)-3′H-spiro[azetidine-3,1′-isobenzofuran]-1-yl)-2-(methylsulfonyl)ethanone]	> 3	≥ 3	
CC(C)C(=O)N1CC2(C1)OCc1cc(N3CCC(c4cc(Cl)c(F)c(Cl)c4)(C(F)(F)F)C3)ccc12 (stereo not shown) [Example 21]		≥ 3	0.01
CC(C)C(=O)N1CC2(C1)OCc1cc(C3=NCC(c4cc(Cl)c(F)c(Cl)c4)(C(F)(F)F)C3)ccc12 (stereo not shown) [Example 4, 1-(5′-(3-(3,5-dichloro-4-fluorophenyl)-3-(trifluoromethyl)-3,4-dihydro-2H-pyrrol-5-yl)-3′H-spiro[azetidine-3,1′-isobenzofuran]-1-yl)-2-methyl propan-1-one]	0.1		
CC(C)C(=O)N1CC2(C1)OCc1cc(C3=NNC(c4cc(Cl)c(F)c(Cl)c4)(C(F)(F)F)C3)ccc12 (stereo not shown) [Example 15, 1-(5′-(5-(3,5-dichloro-4-fluorophenyl)-5-(trifluoromethyl)-4,5-dihydro-1H-pyrazol-3-yl)-3′H-spiro[azetidine-3,1′-isobenzofuran]-1-yl)-2-methylpropan-1-one]		≥ 3	0.03
CS(=O)(=O)CC(=O)N1CC2(C1)OCc1cc(C3=NNC(c4cc(Cl)c(Cl)c(Cl)c4)(C(F)(F)F)C3)ccc12 (stereo not shown) [Example 18, 2-(methylsulfonyl)-1-(5′-(5-(3,4,5-trichlorophenyl)-5-(trifluoromethyl)-4,5-dihydro-1H-pyrazol-3-yl)-3′H-spiro[azetidine-3,1′-isobenzofuran]-1-yl)ethanone hydrochloride]		≥ 3	
CC(C)C(=O)N1CC2(C1)OCc1cc(C3=COC(c4cc(Cl)c(F)c(Cl)c4)(C(F)(F)F)C3)ccc12 (stereo not shown) [Example 12, 5′-[5-(3,5-dichloro-4-fluorophenyl)-5-(trifluoromethyl)-4,5-dihydrofuran-3-yl]-1-isobutyryl-3′H-spiro[azetidine-3,1′-[2]benzofuran]]	> 3		
CS(=O)(=O)CC(=O)N1CC2(C1)OCc1cc(C3=COC(c4cc(Cl)c(F)c(Cl)c4)(C(F)(F)F)C3)ccc12 (stereo not shown) [Example 11, 5′-[5-(3,5-dichloro-4-fluorophenyl)-5-(trifluoromethyl)-4,5-dihydrofuran-3-yl]-1-[(methylsulfonyl)acetyl]-3′H-spiro[azetidine-3,1′-[2]benzofuran]]	> 3		
CC(C)C(=O)N1CC2(C1)OCc1cc(N3CCC(c4cc(Cl)cc(Cl)c4)(C(F)(F)F)C3)ccc12 (stereo not shown) [Example 24]	> 3	≥ 3	
CC(C)C(=O)N1CC2(C1)OCc1cc(C3=COC(c4cc(Cl)cc(Cl)c4)(C(F)(F)F)C3)ccc12 (stereo not shown) [Example 8, 5′-[5-(3,5-dichlorophenyl)-5-(trifluoromethyl)-4,5-dihydrofuran-3-yl]-1-isobutyryl-3′H-spiro[azetidine-3,1′-[2]benzofuran]]	> 3		
CS(=O)(=O)CC(=O)N1CC2(C1)OCc1cc(C3=NNC(c4cc(Cl)cc(Cl)c4)(C(F)(F)F)C3)ccc12 (stereo not shown) [Example 20]	0.1	≥ 3	
CC(C)C(=O)N1CC2(C1)OCc1cc(C3=COC(c4cc(Cl)c(Cl)c(Cl)c4)(C(F)(F)F)C3)ccc12 (stereo not shown) [Example 10]	> 3		
CC(C)C(=O)N1CC2(C1)OCc1cc(C3=NOC(c4cc(Cl)cc(Cl)c4)(C(F)(F)F)O3)ccc12 (stereo not shown) [Example 30, 1-(5-(5-(3,5-dichlorophenyl)-5-(trifluoromethyl)-1,4,2-dioxazol-3-yl)-3′H-spiro[azetidine-3,1′-isobenzofuran]-1-yl)-2-methylpropan-1-one]		≥ 3	0.3
CS(=O)(=O)CC(=O)N1CC2(C1)OCc1cc(C3=COC(c4cc(Cl)c(Cl)c(Cl)c4)(C(F)(F)F)C3)ccc12 (stereo not shown) [Example 9, 2-(methylsulfonyl)-1-(5′-(5-(3,4,5-trichlorophenyl)-5-(trifluoromethyl)-4,5-dihydrofuran-3-yl)-3′H-spiro[azetidine-3,1′-isobenzofuran]-1-yl)ethanone]	> 3		
CS(=O)(=O)CC(=O)N1CC2(C1)OCc1cc(C3=COC(c4cc(Cl)cc(Cl)c4)(C(F)(F)F)C3)ccc12 (stereo not shown) [Example 7, 5′-[5-(3,5-dichlorophenyl)-5-(trifluoromethyl)-4,5-dihydrofuran-3-yl]-1-[(methylsulfonyl)acetyl]-3′H-spiro[azetidine-3,1′-[2]benzofuran]]	> 3		
CS(=O)(=O)CC(=O)N1CC2(C1)OCc1cc(C3=NOC(c4cc(Cl)c(F)c(Cl)c4)(C(F)(F)F)O3)ccc12 (stereo not shown) [Example 27, 1-(5′-(5-(3,5-dichloro-4-fluorophenyl)-5-(trifluoromethyl)-1,4,2-dioxazol-3-yl)-3′H-spiro[azetidine-3,1′-isobenzofuran]-1-yl)-2-(methylsulfonyl)ethanone]	> 3	≥ 3	
CC(C)C(=O)N1CC2(C1)OCc1cc(C3=NN(C)C(c4cc(Cl)c(F)c(Cl)c4)(C(F)(F)F)C3)ccc12 (stereo not shown) [Example 16, 1-(5′-(5-(3,5-dichloro-4-fluorophenyl)-1-methyl-5-(trifluoromethyl)-4,5-dihydro-1H-pyrazol-3-yl)-3′H-spiro[azetidine-3,1′-isobenzofuran]-1-yl)-2-methylpropan-1-one]		1	0.03
CC(C)C(=O)N1CC2(C1)OCc1cc(C3=NNC(c4cc(Cl)c(Cl)c(Cl)c4)(C(F)(F)F)C3)ccc12 (stereo not shown) [Example 17]		≥ 3	
CS(=O)(=O)CC(=O)N1CC2(C1)OCc1cc(C3=NCC(c4cc(Cl)c(F)c(Cl)c4)(C(F)(F)F)C3)ccc12 (stereo not shown) [Example 3, 1-(5′-(3-(3,5-dichloro-4-fluorophenyl)-3-(trifluoromethyl)-3,4-dihydro-2H-pyrrol-5-yl)-3′H-spiro[azetidine-3,1′-isobenzofuran]-1-yl)-2-(methylsulfonyl)ethanone]	0.03		
CS(=O)(=O)CC(=O)N1CC2(C1)OCc1cc(C3=NCC(c4cc(Cl)cc(Cl)c4)(C(F)(F)F)C3)ccc12 (stereo not shown) [Example 5, 1-(5′-(3-(3,5-dichlorophenyl)-3-(trifluoromethyl)-3,4-dihydro-2H-pyrrol-5-yl)-3′H-spiro[azetidine-3,1′-isobenzofuran]-1-yl)-2-(methylsulfonyl)ethanone]	0.03	0.3	
CC(C)C(=O)N1CC2(C1)OCc1cc(C3=NCC(c4cc(Cl)c(Cl)c(Cl)c4)(C(F)(F)F)C3)ccc12 (stereo not shown) [Example 2, 2-methyl-1-(5′-(3-(3,4,5-trichlorophenyl)-3-(trifluoromethyl)-3,4-dihydro-2H-pyrrol-5-yl)-3′H-spiro[azetidine-3,1′-isobenzofuran]-1-yl)propan-1-one]	0.1		
CC(C)C(=O)N1CC2(C1)OCc1cc(C3=NNC(c4cc(Cl)cc(Cl)c4)(C(F)(F)F)C3)ccc12 (stereo not shown) [Example 19, 1-(5′-(5-(3,5-dichlorophenyl)-5-(trifluoromethyl)-4,5-dihydro-1H-pyrazol-3-yl)-3′H-spiro[azetidine-3,1′-isobenzofuran]-1-yl)-2-methylpropan-1-one hydrochloride]	0.1	≥ 3	
CC(C)C(=O)N1CC2(C1)OCc1cc(N3CCC(c4cc(Cl)c(Cl)c(Cl)c4)(C(F)(F)F)C3)ccc12 (stereo not shown) [Example 25]	> 3	≥ 3	
CN1N=C(c2ccc3c(c2)COC32CN(C(=O)CS(C)(=O)=O)C2)CC1(c1cc(Cl)c(F)c(Cl)c1)C(F)(F)F (stereo not shown) [Example 14, 1-(5′-(5-(3,5-dichloro-4-fluorophenyl)-1-methyl-5-(trifluoromethyl)-4,5-di hydro-1H-pyrazol-3-yl)-3′H-spiro[azetidine-3,1′-isobenzofuran]-1-yl)-2-(methylsulfonyl)ethanone]		≥ 3	0.1
